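1) Cells in 96-well plates. 2) Compound, 48 h, 5 concentrations. 3) Linear interpolation between surrounding doses. 4) Unreached endpoint = highest concentration. TGI: concentration producing complete growth inhibition.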
Tests used:
Experiment in all cases: NCI tumour cell line growth inhibition, 48 h
[1] = tested on: HS 578T breast
[2] = tested on: SNB-19 CNS
[3] = tested on: CCRF-CEM leukemia
[4] = tested on: KM12 colon
[5] = tested on: HCT-116 colon
[6] = tested on: SW-620 colon
[7] = tested on: HL-60(TB) leukemia
[8] = tested on: SK-MEL-5 melanoma
[9] = tested on: RXF 393 renal
[10] = tested on: BT-549 breast
[11] = tested on: IGROV1 ovarian
[12] = tested on: HCC-2998 colon
[13] = tested on: DU-145 prostate
[14] = tested on: SF-539 CNS
[15] = tested on: HT29 colon
[16] = tested on: LOX IMVI melanoma
[17] = tested on: UACC-257 melanoma
[18] = tested on: MDA-MB-435
[19] = tested on: OVCAR-5 ovarian
[20] = tested on: SNB-75 CNS
[21] = tested on: SF-268 CNS
[22] = tested on: SF-295 CNS
[23] = tested on: MCF7 breast
[24] = tested on: UACC-62 melanoma
[25] = tested on: ACHN renal
[26] = tested on: M14 melanoma
[27] = tested on: COLO 205 colon
[28] = tested on: UO-31 renal
[29] = tested on: NCI/ADR-RES ovarian
[30] = tested on: HOP-62 NSCLC
[31] = tested on: NCI-H226 lung
[32] = tested on: K-562 leukemia
[33] = tested on: SN12C renal
[34] = tested on: OVCAR-8 ovarian
[35] = tested on: A549 NSCLC
[36] = tested on: RPMI-8226 leukemia
[37] = tested on: OVCAR-3 ovarian
[38] = tested on: CAKI-1 renal
[39] = tested on: NCI-H23 lung
[40] = tested on: EKVX NSCLC
[41] = tested on: U251 CNS
[42] = tested on: MOLT-4 leukemia
[43] = tested on: MDA-N
[44] = tested on: SK-MEL-2 melanoma
[45] = tested on: SK-MEL-28 melanoma
[46] = tested on: T-47D breast
[47] = tested on: PC-3 prostate
[48] = tested on: OVCAR-4 ovarian
[49] = tested on: SR leukemia
[50] = tested on: SK-OV-3 ovarian
[51] = tested on: HOP-92 NSCLC
[52] = tested on: MDA-MB-231 breast
[53] = tested on: TK-10 renal
[54] = tested on: NCI-H460 lung
[55] = tested on: A498 renal
[56] = tested on: 786-0 renal
[57] = tested on: HCT-15 colon
[58] = tested on: NCI-H522 lung

Work on `COc1cc(CCCl)c(CC2=NCCc3cc(OC)c(OC)cc32)cc1OC` yielded a TGI [1] of 80.7 µM, a TGI [2] greater than 100 µM and a TGI [3] greater than 100 µM. The TGI [4] was greater than 100 µM, the TGI [5] was greater than 100 µM and the TGI [6] was greater than 100 µM. The TGI [7] was greater than 100 µM, the TGI [8] was greater than 100 µM and the TGI [9] was greater than 100 µM. The TGI [10] was greater than 100 µM, the TGI [11] was greater than 100 µM and the TGI [12] was greater than 100 µM. The TGI [13] was greater than 100 µM, the TGI [14] was 57.7 µM and the TGI [15] was greater than 100 µM. It also gave a TGI [16] greater than 100 µM, a TGI [17] greater than 100 µM and a TGI [18] greater than 100 µM. It also gave a TGI [19] greater than 100 µM, a TGI [20] greater than 100 µM and a TGI [21] greater than 100 µM. It also gave a TGI [22] greater than 100 µM, a TGI [23] greater than 100 µM and a TGI [24] greater than 100 µM. It also gave a TGI [25] greater than 100 µM, a TGI [26] greater than 100 µM and a TGI [27] greater than 100 µM. For the same compound, the TGI [28] was greater than 100 µM, the TGI [29] was greater than 100 µM and the TGI [30] was greater than 100 µM. For the same compound, the TGI [31] was greater than 100 µM, the TGI [32] was greater than 100 µM and the TGI [33] was greater than 100 µM. The TGI [34] was greater than 100 µM, the TGI [35] was greater than 100 µM and the TGI [36] was greater than 100 µM. It also gave a TGI [37] greater than 100 µM, a TGI [38] greater than 100 µM and a TGI [39] greater than 100 µM. It also gave a TGI [40] greater than 100 µM, a TGI [41] greater than 100 µM and a TGI [42] greater than 100 µM. It also gave a TGI [43] greater than 100 µM, a TGI [44] greater than 100 µM and a TGI [45] greater than 100 µM. The TGI [46] was greater than 100 µM, the TGI [47] was greater than 100 µM and the TGI [48] was greater than 100 µM. The TGI [49] was greater than 100 µM, the TGI [50] was greater than 100 µM and the TGI [51] was greater than 100 µM. For the same compound, the TGI [52] was greater than 100 µM, the TGI [53] was greater than 100 µM and the TGI [54] was greater than 100 µM.
`C=C1C/C(=C/C)C(=O)O[C@@H]2CCN3CC=C(COC(=O)[C@]1(C)O)[C@H]23` gave a TGI [1] greater than 100 µM, a TGI [2] greater than 100 µM and a TGI [3] greater than 100 µM. It also gave a TGI [4] greater than 100 µM, a TGI [55] greater than 100 µM and a TGI [5] greater than 100 µM. The TGI [6] was greater than 100 µM, the TGI [7] was greater than 100 µM and the TGI [8] was greater than 100 µM. For the same compound, the TGI [10] was greater than 100 µM, the TGI [11] was greater than 100 µM and the TGI [12] was greater than 100 µM. For the same compound, the TGI [13] was greater than 100 µM, the TGI [56] was greater than 100 µM and the TGI [14] was greater than 100 µM. For the same compound, the TGI [15] was greater than 100 µM, the TGI [16] was greater than 100 µM and the TGI [17] was greater than 100 µM. It also gave a TGI [18] greater than 100 µM, a TGI [19] greater than 100 µM and a TGI [20] greater than 100 µM. It also gave a TGI [21] greater than 100 µM, a TGI [22] greater than 100 µM and a TGI [23] greater than 100 µM. For the same compound, the TGI [24] was greater than 100 µM, the TGI [25] was greater than 100 µM and the TGI [26] was greater than 100 µM. For the same compound, the TGI [27] was greater than 100 µM, the TGI [28] was greater than 100 µM and the TGI [29] was greater than 100 µM. For the same compound, the TGI [30] was greater than 100 µM, the TGI [31] was greater than 100 µM and the TGI [32] was greater than 100 µM. For the same compound, the TGI [34] was greater than 100 µM, the TGI [35] was greater than 100 µM and the TGI [36] was greater than 100 µM. For the same compound, the TGI [57] was greater than 100 µM, the TGI [37] was greater than 100 µM and the TGI [38] was greater than 100 µM. For the same compound, the TGI [39] was greater than 100 µM, the TGI [40] was greater than 100 µM and the TGI [58] was greater than 100 µM. For the same compound, the TGI [41] was greater than 100 µM, the TGI [43] was greater than 100 µM and the TGI [44] was greater than 100 µM. For the same compound, the TGI [45] was greater than 100 µM, the TGI [46] was greater than 100 µM and the TGI [47] was greater than 100 µM. The TGI [48] was greater than 100 µM, the TGI [49] was greater than 100 µM and the TGI [50] was greater than 100 µM. The TGI [51] was greater than 100 µM, the TGI [52] was greater than 100 µM and the TGI [53] was greater than 100 µM. It also gave a TGI [54] greater than 100 µM.

Source: PubChem BioAssay (NCI)
